US20250099420A1, “SMALL MOLECULE MODULATORS OF GPR139 COMPLEX” (University of Florida Research Foundation, Incorporated, priority 2022, published 2025)
Where two headings read alike, the source gives them in different places.

Key:
[1] = molecular target: T1, GPR139 (Homo sapiens, UniProt Q6DWJ6); assay: GPR139 Agonist titration / agonist counterscreen assay (calcium detection, HEK-GPR139 cells); type: cell-based; design: expressed in transfected cells; host or cells: HEK Aequorin cells, Maxcyte transient transfection; settings: GPR139 Agonist Activity; for Averaged Max % Response (±St. Dev.): activity relative to known control; for EC50: read-out: EC50
T1 sequence (Q6DWJ6 1-353): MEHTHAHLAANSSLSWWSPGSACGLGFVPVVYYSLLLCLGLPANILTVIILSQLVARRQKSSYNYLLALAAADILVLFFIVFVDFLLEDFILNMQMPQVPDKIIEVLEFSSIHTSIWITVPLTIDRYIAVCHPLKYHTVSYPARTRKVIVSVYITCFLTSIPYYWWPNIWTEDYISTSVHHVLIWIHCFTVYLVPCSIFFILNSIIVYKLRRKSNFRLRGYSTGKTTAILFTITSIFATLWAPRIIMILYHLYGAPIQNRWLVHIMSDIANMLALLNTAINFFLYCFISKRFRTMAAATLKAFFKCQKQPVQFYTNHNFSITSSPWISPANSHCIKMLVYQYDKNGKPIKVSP
Procedure: GPR activity was assessed using a calcium detection assay. […] Negative control samples were treated with DMSO. […] Intracellular calcium was measured using Calcium 5.

[2] = system: parental HEK cells; assay: HEK parental Agonist Counterscreen Assay (non-transfected cells); type: cell-based; settings: for Averaged Max % Response (±St. Dev.): activity relative to known control
From the text: The high control for the agonist counterscreen was Forskolin not acetylcholine.

[3] = values printed in E-notation without unit
[4] = Homo sapiens, HEK293, HEK Agonist Activity section of Table 4 (parental HEK counterscreen)
[5] = HEK Agonist Activity section of Table 4 (parental HEK counterscreen)
[6] = Homo sapiens, HEK293, HEK Agonist Activity, parental non-transfected HEK cells

Structure (SMILES) | Averaged Max % Response (±St. Dev.) [1] [%] | Lipophilic Efficiency (logD) ([1]; based on logD) | Lipophilic Efficiency (logP) ([1]; based on logP) | Hill Slope ([1]; fitted dose-response curve) | Efficiency Ligand ([1]; ligand efficiency) | EC50 [1, 3] [nM] | Lipophilic Efficiency (logD) ([2]; HEK Agonist Activity section) | Lipophilic Efficiency (logP) ([2]; HEK Agonist Activity section) | Efficiency Ligand [1] | Hill Slope [1] | Lipophilic Efficiency (logD) [1] | Lipophilic Efficiency (logP) [1] | EC50 ([1]; HEK-GPR139 cells) [nM] | Lipophilic Efficiency (logD) ([2]; HEK Agonist Activity) | Lipophilic Efficiency (logP) ([2]; HEK Agonist Activity) | Averaged Max % Response (±St. Dev.) ([2]; HEK Agonist Activity section) [%] | EC50 [2, 4] [nM] | Averaged Max % Response (±St. Dev.) ([2]; HEK Agonist Activity) [%] | EC50 [2, 6] [nM] | other results
Cc1c(Cl)c(C(F)(F)F)nn1CC(=O)NCc1ccc(Cl)cc1 [SR-01000429212] | 80.96 ± 18.51 | – | – | – | – | – | 1.05 | 1.05 | 0.34 | 0.88 | 1.94 | 1.94 | 2300 | – | – | −31.95 ± 8.26 | > 18000 | – | – | –
CC(Oc1ccc(O)cc1Cl)C(=O)NNC(=O)c1cccc(F)c1 (stereo not shown) [SR-01000520454] | 113.77 ± 7.21 | 5.60 | 5.48 | – | 0.53 | > 0.703 | – | – | – | – | – | – | – | 1.31 | 1.19 | – | – | 15.83 ± 2.96 | > 13800 | –
CC(CCc1ccccc1)NC(=O)Cn1cc2c(n1)CCCC2 (stereo not shown) [SR-01000137757] | 160.07 ± 33.89 | 4.32 | 4.32 | 0.09 | 0.48 | 15.3 | – | – | – | – | – | – | – | 1.35 | 1.35 | – | – | −12.95 ± 5.94 | > 14100 | –
Cc1ccc(Br)cc1S(=O)(=O)NCCC(=O)NCCc1sccc1C [SR-01000101329] | 102.96 ± 12.58 | 5.16 | 5.15 | 0.79 | 0.38 | – | 3.17 | 3.16 | – | – | – | – | – | – | – | −2.50 ± 6.06 | > 14100 | – | – | –
O=C(CN1CCCN(Cc2ccc(F)cc2Cl)C1=O)NC1CCCCCC1 [SR-01000146442] | 108.38 ± 13.78 | 4.80 | 4.80 | 0.79 | 0.41 | 14.9 | – | – | – | – | – | – | – | 1.82 | 1.82 | – | – | −6.48 ± 10.66 | > 14100 | –
Cc1ccccc1-c1nnc(CN2CCc3ccccc3C2)o1 [SR-01000162178] | 112.85 ± 32.26 | – | – | – | – | – | 1.73 | 1.58 | 0.40 | 1.13 | 3.44 | 3.29 | 272 | – | – | 25.44 ± 6.84 | > 14100 | – | – | –
O=C(Cn1nnc(-c2ccccc2)n1)NNC(=O)Cn1c(C(F)(F)F)nc2ccccc21 [SR-01000070891] | 105.87 ± 4.30 | 4.97 | 4.93 | 0.88 | 0.35 | 11.9 | – | – | – | – | – | – | – | 1.86 | 1.83 | – | – | 8.31 ± 6.92 | > 15200 | –
CCC1Cc2ccc(C)cc2CC1C(=O)Nc1ccc(-c2cn[nH]c2)cc1OCCN(C)C (stereo not shown) [SR-00000007138] | 109.71 ± 13.62 | 5.84 | 4.48 | 0.17 | 0.31 | 27.1 | – | – | – | – | – | – | – | 3.12 | 1.76 | – | – | 10.53 ± 4.93 | > 14100 | –
COc1ccc2c(CC(=O)NNC(=O)c3cc(-c4ccccc4)no3)coc2c1 [SR-01000074979] | 79.45 ± 3.43 | – | – | – | – | – | 2.52 | 2.51 | 0.31 | 0.80 | 4.03 | 4.03 | 441 | – | – | −0.33 ± 8.51 | > 14400 | – | – | –
O=C(CNc1nnc(CCCOc2ccc(Cl)cc2Cl)o1)Nc1nccs1 [SR-01000280669] | 83.43 ± 6.82 | – | – | – | – | – | 1.27 | 1.27 | 0.33 | 0.56 | 2.70 | 2.70 | 516 | – | – | −0.76 ± 4.25 | > 14100 | – | – | –
CC1CCCC(NC(=O)CN2CCCN(Cc3ccc(F)cc3Cl)C2=O)C1C (stereo not shown) [SR-01000146420] | 113.46 ± 20.46 | 4.29 | 4.29 | 1.05 | 0.38 | 29.6 | – | – | – | – | – | – | – | 1.61 | 1.61 | – | – | 20.27 ± 3.59 | > 14100 | –
Cc1ccc(CCNC(=O)Cn2nc(-c3ccccc3)ccc2=O)cc1 [SR-01000145157] | 83.58 ± 17.45 | 3.85 | 3.85 | 0.58 | 0.37 | 140 | 1.85 | 1.85 | – | – | – | – | – | – | – | 17.61 ± 4.99 | – | – | – | EC50 [2, 5]: > 14100 nM
CC(C(=O)NCCn1nnn(-c2ccccc2)c1=O)n1nc2ccccc2n1 (stereo not shown) [SR-01000373848] | 97.42 ± 13.41 | – | – | – | – | – | 1.47 | 1.47 | 0.32 | 0.90 | 3.07 | 3.07 | 354 | – | – | 7.32 ± 0.96 | – | – | – | EC50 [2, 5]: > 14100 nM

Further lines, with some results ahead:

Averaged Max % Response (±St. Dev.) [1] [%] | Lipophilic Efficiency (logD) ([1]; based on logD) | Lipophilic Efficiency (logP) ([1]; based on logP) | Hill Slope ([1]; fitted dose-response curve) | Efficiency Ligand ([1]; ligand efficiency) | EC50 [1, 3] [nM] | Lipophilic Efficiency (logD) ([2]; HEK Agonist Activity section) | Lipophilic Efficiency (logP) ([2]; HEK Agonist Activity section) | Efficiency Ligand [1] | Hill Slope [1] | Lipophilic Efficiency (logD) [1] | Lipophilic Efficiency (logP) [1] | EC50 ([1]; HEK-GPR139 cells) [nM] | Lipophilic Efficiency (logD) ([2]; HEK Agonist Activity) | Lipophilic Efficiency (logP) ([2]; HEK Agonist Activity) | Structure (SMILES) | Averaged Max % Response (±St. Dev.) ([2]; HEK Agonist Activity section) [%] | EC50 [2, 4] [nM] | Averaged Max % Response (±St. Dev.) ([2]; HEK Agonist Activity) [%] | EC50 [2, 6] [nM] | other results
111.55 ± 2.57 | 4.82 | 4.82 | 0.34 | 0.38 | 47.9 | 2.35 | 2.35 | – | – | – | – | – | – | – | COc1ccc(CCC(=O)Nc2ccc(OC)c(N3CCCC3=O)c2)cc1 [SR-01000916271] | 29.38 ± 9.84 | > 14100 | – | – | –
186.79 ± 37.86 | 2.75 | 2.75 | – | 0.39 | > 174 | 0.84 | 0.84 | – | – | – | – | – | – | – | Cc1ccc(SCC(=O)Nc2nnc(-c3ccc(Cl)cc3)o2)cc1 [SR-01000913573] | 8.58 ± 4.44 | – | – | – | EC50 [2, 5]: > 14100 nM
89.57 ± 9.18 | – | – | – | – | – | 2.07 | 2.07 | 0.30 | 0.38 | 3.52 | 3.52 | 490 | – | – | O=C(Cn1ccc2ccccc21)NCCCC(=O)Nc1cccc2cccnc12 [SR-01000926510] | 9.24 ± 7.87 | > 14100 | – | – | –
101.90 ± 10.65 | 3.89 | 3.89 | 0.63 | 0.38 | 28.1 | – | – | – | – | – | – | – | 1.19 | 1.19 | CCOc1nn(CC)cc1-c1nnc(SCc2ccc(C(=O)OC)cc2)n1C [SR-01000919746] | – | – | −13.54 ± 17.63 | > 14100 | –
93.88 ± 11.00 | – | – | – | – | – | 1.49 | 1.49 | 0.25 | 0.32 | 2.28 | 2.28 | 2300 | – | – | O=C(NCCS(=O)(=O)N1CCc2ccccc2C1)C(c1ccccc1)c1ccccc1 [SR-01000911742] | −12.80 ± 5.17 | > 14100 | – | – | –
99.08 ± 8.57 | 6.97 | 6.95 | 0.79 | 0.24 | 13.8 | – | – | – | – | – | – | – | 3.96 | 3.94 | CC(C)C1CC(=O)[C@@H]2C[C@@H](CC2C(=O)CC2CCOc3ccccc3C2)C2C=CC(=C2)CCC(=O)[C@@H](Cc2ccccc2)NC1=O (stereo partly shown) [SR-05000709044] | – | – | −2.44 ± 4.17 | – | EC50 ([2]; HEK Agonist Activity, parental non-transfected HEK cells): > 14100 nM
